Five molecules from publication PMC4506092, “Utilizing Chemical Genomics to Identify Cytochrome b as a Novel Drug Target for Chagas Disease” (PLoS Pathogens, 2015) can be followed below.

For one data set, the system named is P. falciparum D10attB. Nature of the data set: P. falciparum SYBR Green proliferation assay, D10attB line. The format is cell-based, Plasmodium falciparum. As to the method: (§1) GNF7686 and cytochrome b inhibitors were assayed for activity on two Plasmodium falciparum (P. falciparum) lines: D10attB and yDHODH-D10attB. The D10attB line is reliant on the coenzyme Q-dependent malarial dihydroorotate dehydrogenase (PfDHODH), whereas the yDHODH-D10attB line expresses also the fumarate-utilizing Saccharomyces cerevisiae (S. cerevisiae) DHODH, which circumvents reliance on PfDHODH and renders this line fully resistant to cytochrome b inhibitors. The use of these two lines allows for distinction of selection of potent cytochrome b inhibitors as described in detail in the Results section. Growth and viability of P. falciparum cell lines (in the presence or absence of drug) in infected erythrocytes were assessed using a SYBR Green-based proliferation assay exactly as described previously.

Data set [1] deals with P. falciparum yDHODH-D10attB. Nature of the data set: P. falciparum SYBR Green proliferation assay, yDHODH-D10attB line. The format is cell-based, Plasmodium falciparum. As to the method: as §1
For data set [2], the system named is L. donovani promastigotes. Nature of the data set: Leishmania donovani promastigote proliferation assay. Format: cell-based.
For data set [3], the system named is T. b. brucei bloodstream form. Nature of the data set: T. b. brucei bloodstream form in vitro efficacy assay. The conditions noted are these: 48 hours, read-out: T. b. Brucei EC50, BSF. Format: cell-based, Trypanosoma brucei brucei. As to the method: Trypanosoma brucei brucei (T. b. brucei) bloodstream form (strain Lister 427) was maintained in HMI-9 medium: IMDM (Iscove's Modified Dulbecco's Media), 10% heat-inactivated FBS, 10% Serum Plus medium supplement (SAFC biosciences), 1 mM hypoxanthine, 50 μM bathocuproine disulfonate.Na2, 1.5 mM cysteine, 1 mM pyruvate, 39 μg/mL thymidine, and 0.2 mM 2-mercapthoethanol) at 37°C / 5% CO2.
For compound screening, parasites were seeded into 384-well assay plates containing HMI-9 with pre-dispensed compounds (0.25% final DMSO concentration) at a density of 6,000 cells / well, and plates were then incubated for 48 hours at 37°C / 5% CO2. Cell viability was assessed using the CellTiter-Glo Luminescent Cell Viability Assay (Promega).

A further data set deals with NIH/3T3 fibroblast cells. Nature of the data set: Mammalian cell cytotoxicity assay (CellTiter-Glo). Format: cell-based, mouse. The conditions noted are these: for Toxicity on the host 3T3 cells (in words): host cells of the intracellular amastigote assay, prevented determination of amastigote EC50. As to the method: NIH/3T3 fibroblast cells were maintained in RPMI-1640 medium supplemented with 10% heat-inactivated FBS and 100 IU penicillin / 100 μg streptomycin per mL at 37°C / 5% CO2. For compound screening, cells were diluted to 4 × 10^4 cells / mL in assay medium (RPMI-1640, 5% FBS, and 100 IU penicillin / 100 μg streptomycin per mL) and seeded at 50 μL / well into 384-well plates. Following overnight incubation, compounds were added to each well (0.2% DMSO final concentration) and plates were further incubated for 96 hours. Cell viability was assessed using the CellTiter-Glo Luminescent Cell Viability Assay (Promega). Measured luminescence values were normalized to the value obtained for 0.2% DMSO, and plotted against the corresponding compound concentration for half maximal cytotoxic concentration (CC50) value determination.
(In general: In ATP-based viability assays light output follows the ATP content of the culture.)

Data set [4] has as its system L. donovani axenic amastigotes. Nature of the data set: Leishmania donovani axenic amastigote in vitro efficacy assay. Format: cell-based. Particulars: 48 hours. As to the method:
Leishmania donovani (L. donovani) axenic amastigotes (strain MHOM/SD/62/1S-CL2D) were maintained at 37°C / 5% CO2 in RPMI-1640 medium containing 4 mM L-glutamine, 20% heat inactivated FBS, 100 IU penicillin / 100 μg streptomycin per mL, 23 μM folic acid, 100 µM adenosine, 22 mM D-glucose, and 25 mM 2-(N-morpholino)ethanesulfonic acid (pH 5.5 adjusted at 37°C using 1M HCl).
For compound screening, axenic amastigotes were seeded into 384-well plates containing axenic amastigote medium with pre-dispensed compounds (0.25% final DMSO concentration) at a density of 9,600 cells / well. Plates were incubated for 48 hours at 37°C / 5% CO2. Cell viability was assessed using the CellTiter-Glo Luminescent Cell Viability Assay (Promega).

Another data set concerns T. b. brucei procyclics. Nature of the data set: T. b. brucei procyclic form in vitro efficacy assay. The format is cell-based, Trypanosoma brucei brucei. Particulars: 72 hours. As to the method:
For conversion from the bloodstream form to the procyclic form, bloodstream form parasites were transferred from HMI-9 medium to Differentiating Trypanosome Medium (DTM, pH = 7.2), consisting of: 6.8 g / L NaCl, 400 mg / L KCl, 200 mg / L CaCl2, 140 mg / L NaH2PO4.H2O, 200 mg / L MgSO4.7H2O, 7.94 g / L HEPES, 2.2 g / L NaHCO3, 110 mg / L sodium pyruvate, 10 mg / L phenol red, 14 mg / L hypoxanthine, 1 mg / L biotin, 760 mg / L glycerol, 640 mg / L proline, 236 mg / L glutamic acid, 1.34 g / L glutamine, 7.5 mg / L hemin (in 50 mM sodium hydroxide), 1X MEM amino acid solution (Invitrogen),1X MEM non-essential amino acids solution (Invitrogen), 28.2 mg / L bathocuproine disulfonate.Na2, 182 mg/L cysteine, 0.2 mM 2-mercaptoethanol, 15% heat-inactivated FBS, and 5 mM sodium citrate and cis-aconitate. Following medium exchange, parasites were incubated at a lower temperature (27°C / 5% CO2), monitored for change in morphology to procyclic parasites, and sub-cultured for long-term cultivation.
For compound screening, 20 μliters (5,000 parasites) of T. b. brucei procyclic culture were added to 384-well plate wells filled with 20 μliters of DTM medium and pre-dispensed compounds (0.25% final DMSO concentration). Plates were then incubated for 72 hours at 27°C / 5% CO2. Cell viability was assessed using the CellTiter-Glo Luminescent Cell Viability Assay (Promega).

Data set [5] deals with T. cruzi trypomastigotes (GNF7686-resistant, DR). Nature of the data set: T. cruzi trypomastigote viability assay (CellTiter-Glo), GNF7686-resistant. The format is cell-based, Trypanosoma cruzi. Particulars: for EC50: GNF7686-resistant T. cruzi, 48-hour incubation. The method, then:
To assess compound efficacy on trypomastigotes, parasites (30 μL; 2 × 10^6 trypomastigotes / mL) were added to 384-well plates containing 10 μL of RPMI-1640 without phenol red (Invitrogen) and supplemented with 10% FBS and 100 IU penicillin / 100 µg streptomycin per mL, and then treated with compounds (0.2% DMSO final concentration). Following a 48-hour incubation period, viability was assessed using the CellTiter-Glo Luminescent Cell Viability Assay (Promega).

The mark [6] stands for this setting: Plasmodium falciparum; read-out: P. falciparum EC50, D10attB.
The mark [7] stands for this setting: Plasmodium falciparum; read-out: P. falciparum EC50, yDHODH-D10attB.

Structures are written as SMILES. Like-named read-outs stand apart in the source and are kept apart here.

As to `CCCCCC[C@H]1C(=O)O[C@H](C)[C@H](NC(=O)c2cccc(NC=O)c2O)C(=O)O[C@@H](C)[C@@H]1OC(=O)CC(C)C` [Antimycin A], the EC50 (as a rule, the concentration giving half of the maximal effect) with P. falciparum D10attB (Plasmodium falciparum, read-out: P. falciparum EC50, D10attB) was 0.7 ± 0.34 µM; in data set [1] (Plasmodium falciparum, read-out: P. falciparum EC50, yDHODH-D10attB) it was above 12.5 µM; in data set [2] (Leishmania donovani), 0.01 ± 0.003 µM; in data set [3] (Trypanosoma brucei) it was above 25 µM; in data set [4] (Leishmania donovani), 0.01 ± 0.004 µM; in the data set with T. b. brucei procyclics (Trypanosoma brucei) it was 0.03 ± 0.002 µM. In data set [5] (Trypanosoma cruzi), this molecule gave an EC50 of 4.3 ± 1.3 µM. Besides, in the data set with NIH/3T3 fibroblast cells, the “Toxicity on the host 3T3 cells (in words)” value (“Toxicity” below) is “toxicity”. The “Shift of trypomastigote potency, mutant vs wild-type” value in data set [5] amounted to 20 fold.
As to `O=C(Cn1ccnc1[N+](=O)[O-])NCc1ccccc1` [Benznidazole], the EC50 in the data set on P. falciparum D10attB (setting [6]) is above 12.5 µM; in data set [1] (setting [7]), above 12.5 µM; in data set [2] (Leishmania donovani), above 25 µM; in data set [3] (Trypanosoma brucei), above 25 µM; in data set [4] (Leishmania donovani), above 25 µM; with T. b. brucei procyclics (Trypanosoma brucei), above 25 µM. The molecule also came in with an EC50 in data set [5] (Trypanosoma cruzi) of 11 ± 0.58 µM.
With `CCc1c(C)c(C#N)c2nc3ccccc3n2c1O` [GNF7686], the EC50 with P. falciparum D10attB (setting [6]) is above 12.5 µM; in data set [1] (setting [7]), above 12.5 µM; in data set [2] (Leishmania donovani), 0.46 ± 0.12 µM; in data set [3] (Trypanosoma brucei), above 25 µM; in data set [4] (Leishmania donovani), 0.46 ± 0.28 µM; in the data set with T. b. brucei procyclics (Trypanosoma brucei) it was 0.59 ± 0.09 µM. The molecule also had a half-maximal effective concentration (EC50) in data set [5] (Trypanosoma cruzi) of 4.5 ± 0.84 µM. In addition, the “Mammalian cell proliferation: no effect observed up to” value in the data set with NIH/3T3 fibroblast cells (mouse) is recorded as above 25 µM.
`CO/C(=C/C(N)=O)[C@H](C)[C@H](/C=C/c1csc(-c2csc([C@@H](C)/C=C/C=C/C(C)C)n2)n1)OC` [Myxothiazol]: the EC50 worked out at 0.3 ± 0.01 µM with P. falciparum D10attB (read-out: P. falciparum EC50, D10attB); 8.4 ± 1.6 µM in data set [1] (read-out: P. falciparum EC50, yDHODH-D10attB); 3.1 ± 0.45 µM in data set [2]; 17.2 ± 3.1 µM in data set [3]; 9.6 ± 3.9 µM in data set [4]; 2.5 ± 0.22 µM in the data set on T. b. brucei procyclics. The same molecule displayed a concentration for a half-maximal effect (EC50) in data set [5] of 2.9 ± 0.43 µM. The “Toxicity” value in the data set on NIH/3T3 fibroblast cells is reported as “toxicity”.
Consider `CO\C=C(C(=O)OC)/C(C)=C\C=C\c1ccccc1` [Strobilurin], for which the EC50 with P. falciparum D10attB (setting [6]) was 0.46 ± 0.27 µM; in data set [1] (setting [7]), above 12.5 µM; in data set [2] (Leishmania donovani), 4.3 ± 0.82 µM; in data set [3] (Trypanosoma brucei), above 25 µM; in data set [4] (Leishmania donovani) it was 9.1 ± 2.5 µM; with T. b. brucei procyclics (Trypanosoma brucei), 3.2 ± 0.33 µM. In addition, a half-maximal response in data set [5] (Trypanosoma cruzi) (EC50) required 1.4 ± 0.36 µM. Besides, in the data set on NIH/3T3 fibroblast cells, the “Toxicity” value is on record as “toxicity”.
